Laboratory results: patent publication US9416353B2, “Covalent tethering of functional groups to proteins and substrates therefor” (Promega Corporation, priority 2004, dated 2016)

How the values were obtained:
CHO-K1 cells [1] = test: Permeability of cell membrane to substrates (uptake and wash-out, fluorescence); assay type: cell-based; conditions: 100 μM, 60 minutes
Procedure: CHO-K1 Cells (ATCC-CCL61) were cultured in a 1:1 mixture of Ham's F12 nutrients and Dulbecco's modified minimal essential medium supplemented with 10% fetal bovine serum (FBS), 100 U/ml penicillin, and […] streptomycin, in an atmosphere of 95% air and 5% CO2 at 37° C.

DhaA.H272F = DhaA.H272F (Rhodococcus rhodochrous, UniProt P0A3G2, H272F); assay type: binding; conditions: dose dependent, HRP conjugated streptavidin
CHO-K1 cells [2] = test: Toxicity of Cl-alkanes, CellTiter-Glo Luminescence Cell Viability Assay; assay type: cell-based
Procedure: To study the toxicity of Cl-alkanes, CHO-K1 cells were plated in 96 well plates to a density of 5,000 cells per well. […] Viability of the cells was measured with CellTiter-Glo™ Luminescence Cell Viability Assay (Promega) according to the manufacturer's protocol. Generally, 100 μl of CellTiter-Glo™ reagent was added directly to the cells and the luminescence was recorded at 10 minutes using a DYNEX MLX microtiter plate luminometer.

## O=C(NCCOCCOCCCCCCCl)c1ccc(-c2c3ccc(=O)cc-3oc3cc(O)ccc23)c(C(=O)O)c1 [N-{2-[2-(6-Chlorohexyloxy)-ethoxy]-ethyl}-fluorescein-5-amide]
CHO-K1 cells [1]
  crossing of the plasma membrane of CHO-K1 cells: did not cross the plasma membrane

## O=C(CCCC[C@@H]1SC[C@@H]2NC(=O)N[C@@H]21)NCCOCCOCCCCCCCl [biotin-C10H21NO2—Cl, N-{2-[2-(6-Chlorohexyloxy)-ethoxy]ethyl}-biotin-amide]
DhaA.H272F
  concentration at which binding could be detected: 0.2 µM
CHO-K1 cells [2]; 24 hours of treatment at 100 μM
  toxicity on CHO-K1 cells: No toxicity

## N-{2-[2-(6-Chlorohexyloxy)-ethoxy]-ethyl}-tetramethylrhodamine-5-(and -6)-amide
CHO-K1 cells [2]; 4 hour treatment at 100 μM (highest concentration tested)
  toxicity on CHO-K1 cells: no toxicity
